Entries after “also recorded” stand apart in the source; their conditions may differ.

For assay [1], the system named is rodent models of inflammatory pain. The following applies: earlier work of the inventors; cited from earlier work.
Assay [2] relates to homozygous ALDH2*2 knock-in mice. The assay is described as follows: mouse surgical model of endometriosis, endometrial cyst area, ALDH2*2 knock-in mice. To be noted: ALDH2*2 mice, vs DMSO. Type of assay: in vivo. The source says:
(§1) FIG. 2A-2C. Relative to wild type mice, ALDH2*2 mice develop larger endometrial cysts by 3 days after endometriosis surgery. FIG. 2A In a mouse surgical model of endometriosis, three (2 mm×2 mm) uterine horn auto transplants are sutured onto cascading mesenteric arteries which in turn since located outside the uterus develop cysts in the abdomen. FIG. 2B Female wild type (C57/BL6) and ALDH2*2 knock-in mice on the same genetic background 8-10 weeks of age were induced with endometriosis and sacrificed 1, 3, or 28 days later. Endometrial cysts were collected and cyst area was measured (length×width). FIG. 2C Average cyst area was calculated for each group (wild type: blue, ALDH2*2: red) of mice at day 1, 3, and 28. Data are presented as mean±SEM, n=6 mice/group.
(§2) FIG. 3A-3D. Alda-1 reduces endometrial cyst size 3 days and 28 days after endometriosis induction. FIG. 3A. […] FIG. 3B. […]
(§3) Briefly, mice were anesthetized with isoflurane (1-3%) and an off-midline (left side) incision made through the skin and muscle layer to expose the pelvic and abdominal organs. […] On day 1, 3, or 28 after endometriosis induction, mice were sacrificed, endometrial cyst length and width measured to calculate cyst area, and then the average cyst area per group determined.

Assay [3] relates to female Sprague-Dawley rats. The assay is described as follows: acetaldehyde-induced vaginal hyperalgesia, escape response to vaginal balloon distention. Type of assay: in vivo, rat. The following applies: Alda-1 1 mg/kg i.p. alone, in the absence of the noxious stimulus. An excerpt: FIG. 1A-1C. Alda-1 mitigates acetaldehyde-induced vaginal hyperalgesia in rats. FIG. 1A Five female Sprague-Dawley rats initially weighing 150-175 g were trained over a period of ˜4 weeks to terminate an escape response from the noxious stimuli produced by a balloon inflated in the vagina. Top image: Rats trained to be accustomed to the testing chamber. Bottom image: The escape response assessed by the rat poking its head into a tube. This response in turn breaks an infrared beam and causes the vaginal balloon to deflate. […] The shaded area is calculated as the area under the curve. n=5 rats/volume FIG. 1C Histogram of vaginal escape response expressed as the area under the curve calculated using standard trapezoid methods. […]
Alda and endonetriosis: Although rodent inflammatory pain models such as carageenan and CFA may represent some aspects of endometriosis, there is a validated rat model of endometriosis-associated pain, which produces signs and painful symptoms similar to those in women (S. McAllister, K. McGinty, D. Resuehr, K. Berkley. Endometriosis-induced vaginal hyperalgesia in the rat: Role of the ectopic growths and their innervation. Pain. 147: 255-264 (2009)). […] The rat is then monitored to determine an escape response, which is assessed by the rodent breaking an infrared beam with its nose; this, in turn, causes the inflated balloon in the vagina to deflate (FIG. 1A). […]

Another assay concerns wild type C57/BL6 mice. The assay is described as follows: mouse surgical model of endometriosis, endometrial cyst area, wild type mice. Type of assay: in vivo. The following applies: vs DMSO.
Description: as §1, §2, §3

Where [4] appears, read: Alda-1 5 mg/kg subcutaneous Alzet pump for 3 days.

As for `O=C(NCc1ccc2c(c1)OCO2)c1c(Cl)cccc1Cl` [Alda-1, N-(1,3-benzodioxol-5-ylmethyl)-2,6-dichlorobenzamide], the pain thresholds entry in assay [1] is “increases pain thresholds”. For the same molecule, the “average endometrial cyst area” value was “significant reduction; also recorded: significantly reduced” in assay [2] (setting [4]); “significant reduction; also recorded: significantly reduced” in assay [2] (Alda-1 5 mg/kg subcutaneous Alzet pump for 28 days); “significant reduction” with wild type C57/BL6 mice (setting [4]); “significant reduction; also recorded: significantly reduced” in the assay on wild type C57/BL6 mice (Alda-1 5 mg/kg subcutaneous Alzet pump for 28 days, 5 mg/kg). For the same molecule, in assay [3], the “vaginal escape response (area under the curve), effect of compound alone” value is given as “No effect”.

The record behind these values is patent publication US11974981B2, “Methods and compositions for treating endometriosis and endometriosis associated symptoms” (The Board of Trustees of the Leland Stanford Junior …, priority 2017, dated 2024).
